Laboratory results: patent US9365613B2, “Acylated 4-amidino- and -4-guanidinobenzylamines for inhibition of plasma kallikrein” (The Medicines Company (Leipzig) GmbH, priority 2003, dated 2016)

Key:
PK = PK (Homo sapiens, UniProt P03952); settings: read-out: Ki PK (literature); cited from earlier work
human factor XIa = target: T1, human factor XIa (Homo sapiens, UniProt P03951); assay: Inhibitory constants for factor XIa (substrate H-D-Lys(Z)-Pro-Arg-pNA, Chromozym PCa); assay type: biochemical; settings: read-out: Ki F XIa
T1 construct: purchased Haemochrom Diagnostica GmbH, Essen, Germany
T1 sequence (P03951 388-625 limits assumed): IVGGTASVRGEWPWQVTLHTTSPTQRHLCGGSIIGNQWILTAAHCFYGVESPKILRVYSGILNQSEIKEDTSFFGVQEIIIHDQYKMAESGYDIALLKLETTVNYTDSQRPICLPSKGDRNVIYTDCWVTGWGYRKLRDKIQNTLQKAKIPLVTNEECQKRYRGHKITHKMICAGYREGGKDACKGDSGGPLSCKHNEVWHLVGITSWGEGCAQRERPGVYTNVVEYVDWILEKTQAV
T1 sequence (P03951 19-387 partner limits assumed): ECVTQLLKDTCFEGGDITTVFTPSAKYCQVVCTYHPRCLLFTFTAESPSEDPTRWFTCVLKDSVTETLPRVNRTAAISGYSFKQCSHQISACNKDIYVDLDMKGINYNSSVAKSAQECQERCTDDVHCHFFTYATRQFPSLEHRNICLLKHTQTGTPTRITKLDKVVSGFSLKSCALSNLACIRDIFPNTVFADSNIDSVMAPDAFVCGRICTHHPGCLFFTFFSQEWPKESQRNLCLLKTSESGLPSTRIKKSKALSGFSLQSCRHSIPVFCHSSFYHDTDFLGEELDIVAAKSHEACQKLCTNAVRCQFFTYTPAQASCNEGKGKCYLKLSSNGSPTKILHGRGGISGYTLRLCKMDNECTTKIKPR
Method: (§1) The inhibitory effect for the individual enzymes was determined in analogy with a method which has already been described (Stürzebecher et al., J. Med. Chem. 40, 3091-3099, 1997).
(§2) After 3 min, the reaction was terminated by adding 25 μl of acetic acid (50%) and the absorption at […] was determined using a Microplate Reader (Labsystems iEMS Reader MF). The Ki values were determined, in accordance with Dixon (Biochem. J. 55, 170-171, 1953), by means of linear regression and using a computer program. The Ki values are the mean of at least three determinations.
(§3) The inhibition of factor XIa and factor XIIa was determined in an analogous manner. When determining the inhibitory constants for human factor XIa (Haemochrom Diagnostica GmbH, Essen, Germany), H-D-Lys(Z)-Pro-Arg-pNA (Chromozym PCa, Roche Diagnostics GmbH, Mannheim, Germany) was used as the substrate.

plasma kallikrein (PK) = plasma kallikrein (PK) (Homo sapiens, UniProt P03952); assay: Determining the inhibitory constants: inhibition of PK (substrate Bzl-Pro-Phe-Arg-pNA); assay type: biochemical; settings: Tris buffer pH 8.0, 25° C.; mean of at least three determinations
plasma kallikrein (PK), sequence (P03952 391-638 limits assumed, species assumed): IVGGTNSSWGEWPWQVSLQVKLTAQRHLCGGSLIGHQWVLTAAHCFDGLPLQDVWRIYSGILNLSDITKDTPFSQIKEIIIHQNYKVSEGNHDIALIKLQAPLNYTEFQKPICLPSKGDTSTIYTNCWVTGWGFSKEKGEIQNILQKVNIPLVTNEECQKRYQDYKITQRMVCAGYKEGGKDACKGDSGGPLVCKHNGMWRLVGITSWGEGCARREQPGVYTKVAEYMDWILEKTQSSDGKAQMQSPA
plasma kallikrein (PK), sequence (P03952 20-390 partner limits assumed, species assumed): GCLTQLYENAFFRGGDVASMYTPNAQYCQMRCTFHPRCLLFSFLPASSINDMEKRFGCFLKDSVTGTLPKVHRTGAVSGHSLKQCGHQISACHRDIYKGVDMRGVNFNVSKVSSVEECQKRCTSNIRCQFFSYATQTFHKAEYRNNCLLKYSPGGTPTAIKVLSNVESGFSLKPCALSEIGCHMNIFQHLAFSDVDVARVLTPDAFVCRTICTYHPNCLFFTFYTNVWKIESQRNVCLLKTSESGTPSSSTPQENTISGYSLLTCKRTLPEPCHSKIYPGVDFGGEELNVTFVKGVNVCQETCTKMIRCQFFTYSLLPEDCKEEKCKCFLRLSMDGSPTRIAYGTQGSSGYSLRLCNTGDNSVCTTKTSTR
Method: as §1, §2

thrombin = thrombin (UniProt P00735); assay: Inhibitory constants for thrombin; assay type: biochemical; settings: read-out: Ki Thrombin
human factor XIIa = target: T2, human factor XIIa (Homo sapiens, UniProt P00748); assay: Inhibitory constants for factor XIIa (substrate H-D-HHT-Gly-Arg-pNA, Chromozym XII); assay type: biochemical; settings: read-out: Ki F XIIa
T2 construct: purchased Haemochrom Diagnostica GmbH, Essen, Germany
T2 sequence (P00748 373-615 limits assumed, other chains not shown): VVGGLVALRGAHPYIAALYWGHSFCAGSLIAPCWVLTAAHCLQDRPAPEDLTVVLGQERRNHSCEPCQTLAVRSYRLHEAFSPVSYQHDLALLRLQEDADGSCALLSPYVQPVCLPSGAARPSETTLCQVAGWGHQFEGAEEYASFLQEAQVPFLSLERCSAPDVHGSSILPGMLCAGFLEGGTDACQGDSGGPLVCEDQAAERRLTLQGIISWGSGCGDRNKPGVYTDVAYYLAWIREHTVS
Method: as §1, §2, §3
H-D-HHT-Gly-Arg-pNA (Chromozym XII, Roche Diagnostics GmbH, Mannheim, Germany) was used as the substrate for measuring the inhibitory constants of human factor XIIa (Haemochrom Diagnostica GmbH, Essen, Germany).

PK, sequence (P03952 391-638 limits assumed): as the sequence (P03952 391-638 limits assumed, species assumed) above
PK, sequence (P03952 20-390 partner limits assumed): as the sequence (P03952 20-390 partner limits assumed, species assumed) above

| Ki (human factor XIa) | Ki (plasma kallikrein (PK)) | Ki (thrombin) | Ki (human factor XIIa) | Compound | Ki (PK) |
| --- | --- | --- | --- | --- | --- |
| – | – | – | – | CC(=O)N[C@H](Cc1ccccc1)C(=O)N1CCC[C@H]1C(=O)N[C@@H](CCCN=C(N)N)B(O)O [DuP 714, Ac-D-Phe-Pro-boroarginine] | 1.6 nM |
| 610 nM | 8.2 nM | 500 nM | 80000 nM | CC(C)(C)OCC(NS(=O)(=O)Cc1ccccc1)C(=O)NC(CCOCc1ccccc1)C(=O)NCc1ccc(C(=N)N)cc1 (stereo not shown) [Inhibitor 43] | – |
| 260 nM | 5.5 nM | 160 nM | 4600 nM | CC(C)(C)OC[C@@H](NS(=O)(=O)Cc1ccccc1)C(=O)N[C@@H](Cc1ccccc1)C(=O)NCc1ccc(C(=N)N)cc1 [Inhibitor 44] | – |
| 83 nM | 4.5 nM | 48 nM | 1300 nM | CC(C)(C)OC[C@@H](NS(=O)(=O)Cc1ccccc1)C(=O)N[C@@H](CCc1ccccc1)C(=O)NCc1ccc(C(=N)N)cc1 [Inhibitor 45] | – |
| 1600 nM | 1100 nM | 360 nM | 4800 nM | COC(=O)c1ccc(CS(=O)(=O)N[C@H](COC(C)(C)C)C(=O)NCC(=O)NCc2ccc(C(=N)N)cc2)cc1 [Inhibitor 47] | – |
| 6.9 nM | 6.2 nM | 44 nM | 9500 nM | C[C@H](NC(=O)[C@@H](COC(C)(C)C)NS(=O)(=O)Cc1ccc(C(=O)O)cc1)C(=O)NCc1ccc(C(=N)N)cc1 [Inhibitor 48] | – |
| 79 nM | 54 nM | 4.3 nM | 4700 nM | COC(=O)c1ccc(CS(=O)(=O)N[C@H](COC(C)(C)C)C(=O)N[C@@H](C)C(=O)NCc2ccc(C(=N)N)cc2)cc1 [Inhibitor 49] | – |
| 2900 nM | 4000 nM | 120 nM | 1800 nM | CC(C)(C)OC[C@@H](NS(=O)(=O)Cc1ccc(CN)cc1)C(=O)NCC(=O)NCc1ccc(C(=N)N)cc1 [Inhibitor 50] | – |
| 9.1 nM | 9.4 nM | 0.064 nM | 1600 nM | CC(C)(C)OC[C@@H](NS(=O)(=O)Cc1ccc(C#N)cc1)C(=O)N1CCC[C@H]1C(=O)NCc1ccc(C(=N)N)cc1 [Inhibitor 51] | – |
| 150 nM | 2.3 nM | 10 nM | 830 nM | N=C(N)c1ccc(CNC(=O)[C@H](CCCCN)NC(=O)[C@@H](CC2CCCCC2)NS(=O)(=O)Cc2ccccc2)cc1 [Inhibitor 53] | – |
| 340 nM | 20 nM | 15 nM | 4000 nM | N=C(N)c1ccc(CNC(=O)[C@H](CCCCNC(=O)OCc2ccccc2)NC(=O)[C@@H](CC2CCCCC2)NS(=O)(=O)Cc2ccccc2)cc1 [Inhibitor 54] | – |
| 170 nM | 90 nM | 3.2 nM | 470 nM | N=C(N)c1ccc(CNC(=O)[C@@H]2CCCN2C(=O)[C@@H](CC2CCCCC2)NS(=O)(=O)Cc2cccc(CN)c2)cc1 [Inhibitor 55] | – |
| 52 nM | 44 nM | < 1 nM | 5600 nM | N=C(N)c1ccc(CNC(=O)[C@@H]2CCCN2C(=O)[C@@H](CC2CCCCC2)NS(=O)(=O)Cc2cccc(CNC(=O)CCCC(=O)O)c2)cc1 [Inhibitor 56] | – |
| 20 nM | 30 nM | 81 nM | 4000 nM | N=C(N)c1ccc(CNC(=O)[C@H](CCC(=O)O)NC(=O)[C@@H](CC2CCCCC2)NS(=O)(=O)Cc2ccccc2)cc1 [Inhibitor 57] | – |
| 230 nM | 59 nM | 8 nM | 2000 nM | N=C(N)c1ccc(CNC(=O)[C@H](CCCCNC(=O)COCC(=O)NCCOCCOCCOCCOCCOCCOCCOCCN)NC(=O)[C@@H](CC2CCCCC2)NS(=O)(=O)Cc2ccccc2)cc1 [Inhibitor 58] | – |
| 40 nM | 15 nM | 15 nM | 980 nM | N=C(N)c1ccc(CNC(=O)[C@H](CCC(=O)NCCCOCCOCCOCCCN)NC(=O)[C@@H](CC2CCCCC2)NS(=O)(=O)Cc2ccccc2)cc1 [Inhibitor 59] | – |

| Ki (human factor XIa) | Ki (plasma kallikrein (PK)) | Ki (thrombin) | Ki (human factor XIIa) | Compound | Ki (PK) |
| --- | --- | --- | --- | --- | --- |
| 31 nM | 5.5 nM | 170 nM | 94 nM | N=C(N)c1ccc(CNC(=O)[C@H](CCC(=O)OCc2ccccc2)NC(=O)[C@@H](CCc2ccncc2)NS(=O)(=O)Cc2ccccc2)cc1 [Inhibitor 60] | – |
| 14 nM | 9.1 nM | 240 nM | 29000 nM | N=C(N)c1ccc(CNC(=O)[C@@H]2CCCN2C(=O)[C@@H](CO)NS(=O)(=O)Cc2ccc(C(=O)O)cc2)cc1 [Inhibitor 61] | – |
| 25000 nM | 11 nM | 9 nM | 700 nM | N=C(N)c1ccc(CNC(=O)CNC(=O)[C@@H](CC2CCCCC2)NS(=O)(=O)Cc2ccccc2)cc1 [Inhibitor 63] | – |
| 30 nM | 15 nM | 2000 nM | 17000 nM | CC(C)(C)OC[C@@H](NS(=O)(=O)Cc1ccc(C(=O)O)cc1)C(=O)N[C@@H](CO)C(=O)NCc1ccc(C(=N)N)cc1 [Inhibitor 65] | – |
| 3000 nM | 19 nM | 550 nM | 630 nM | N=C(N)c1ccc(CNC(=O)[C@H](CO)NC(=O)[C@@H](CCc2ccccc2)NS(=O)(=O)Cc2ccccc2)cc1 [Inhibitor 67] | – |
| 93 nM | 51 nM | 710 nM | 390 nM | N=C(N)c1ccc(CNC(=O)CNC(=O)[C@@H](CCc2ccccc2)NS(=O)(=O)Cc2ccc([N+](=O)[O-])cc2)cc1 [Inhibitor 74] | – |
| 250 nM | 82 nM | 85 nM | 190 nM | N=C(N)c1ccc(CNC(=O)CNC(=O)[C@@H](Cc2cccc(C(=N)N)c2)NS(=O)(=O)Cc2ccccc2)cc1 [Inhibitor 77] | – |
| 220 nM | 75 nM | 59 nM | 310 nM | N=C(N)NCc1cccc(C[C@@H](NS(=O)(=O)Cc2ccccc2)C(=O)NCC(=O)NCc2ccc(C(=N)N)cc2)c1 [Inhibitor 79] | – |
| 490 nM | 68 nM | 2100 nM | 340 nM | N=C(N)NCC[C@@H](NS(=O)(=O)Cc1ccccc1)C(=O)NCC(=O)NCc1ccc(C(=N)N)cc1 [Inhibitor 80] | – |
| 700 nM | 74 nM | 1400 nM | 350 nM | N=C(N)NCCC[C@@H](NS(=O)(=O)Cc1ccccc1)C(=O)NCC(=O)NCc1ccc(C(=N)N)cc1 [Inhibitor 81] | – |
| 330 nM | 100 nM | 23 nM | 1400 nM | N=C(N)c1ccc(CNC(=O)CNC(=O)[C@@H](CC2CCCCC2)NS(=O)(=O)Cc2ccccc2)cc1 [Inhibitor 82] | – |
| 700 nM | 140 nM | 530 nM | 380 nM | COC(=O)c1ccc(CS(=O)(=O)N[C@H](Cc2cccc(C(=N)N)c2)C(=O)NCC(=O)NCc2ccc(C(=N)N)cc2)cc1 [Inhibitor 84] | – |
| 400 nM | 220 nM | 1200 nM | 21000 nM | N=C(N)c1ccc(CNC(=O)[C@H](CCCCNC(=O)COCC(=O)NCCOCCOCCOCCOCCOCCOCCOCCN)NC(=O)[C@@H](CO)NS(=O)(=O)Cc2ccccc2)cc1 [Inhibitor 88] | – |
| – | – | – | – | N=C(N)NCCCC(C=O)NC(=O)C(Cc1ccccc1)NC(=O)C(Cc1ccccc1)NC(=O)OC12CC3CC(CC(C3)C1)C2 [adamantyloxycarbonyl-D-Phe-Phe-arginal] | 12 nM |
| – | – | – | – | CC(C)(C)C(NC(=O)OC12CC3CC(CC(C3)C1)C2)C(=O)NC(Cc1ccccc1)C(=O)NC(CCCNC(=N)N)C(=O)C(F)(F)F [adamantyloxycarbonyl-D-tert-butylglycine-Phe-Arg-CF3] | 2 nM |
